What was measured:
Assay type in all cases: cell-based, rabbit
[1] = tested on: renal proximal tubular cells; assay: Cell density (monolayer protein content) in DCVC-injured RPTC; settings: for monolayer protein content in injured RPTC: day 1 or day 6 after DCVC, 50 μg/ml
Procedure: Rabbit renal proximal tubules were isolated using the iron oxide perfusion method and grown in 35-mm tissue culture dishes or 48-well cell culture clusters under improved conditions as previously described (35, 36). The cell culture medium was a 1:1 mixture of DMEM/Ham's F-12 (without D-glucose, phenol red, or sodium pyruvate) supplemented with 15 mM HEPES buffer, 2.5 mM L-glutamine, 1 μM pyridoxine HCl, 15 mM sodium bicarbonate, and 6 mM lactate. Hydrocortisone (50 nM), selenium (5 ng/ml), human transferrin (5 μg/ml), bovine insulin (10 nM), and L-ascorbic acid-2-phosphate (50 μM or 500 μM) were added to fresh culture medium immediately prior to daily media change. L-Ascorbic acid-2-phosphate (AscP) was used due to the fact that L-ascorbic acid is unstable in culture media. AscP is stable in culture media for ≧7 days at 37° C. and, after intracellular dephosphorylation, has the same effect on cultured cells as L-ascorbic acid (13).
(§1) Confluent monolayers of renal proximal tubular cells (day 6 after seeding) were exposed to 200 μM S-(1,2-dichlorovinyl)-L-cysteine (dissolved in water) for 1.75 hours followed by toxicant removal and addition of fresh culture media. This method produces approximately 50% cell death and loss 24 hours after the exposure. On days 1, 4, and 6 following S-(1,2-dichlorovinyl)-L-cysteine exposure, the ability of the remaining renal proximal tubular cells to regenerate and repair physiological function was monitored as described below. In some experiments, immediately after S-(1,2-dichlorovinyl)-L-cysteine exposure and after daily media change through day 6 after injury, collagen I (0, 5, 15, or 50 μg/ml), collagen IV (0, 5, 15, or 50 μg/ml), laminin (50 μg/ml), or cellular fibronectin (50 μg/ml) was added to the culture media of uninjured and S-(1,2-dichlorovinyl)-L-cysteine-injured renal proximal tubular cells grown in physiological concentrations of AscP. Exogenous collagens I and IV used in this study were triple helical and contained only α1 and α2 chains in conformations similar to those found in the renal basement membrane (3, 25). Laminin was a mixture of biologically active laminin chains found in most epithelial tissues (8, 50) and cellular fibronectin was composed of functional dimers (51).
Measurement of monolayer protein content over time was used to estimate cell density. On days 1, 4, and 6 after sublethal S-(1,2-dichlorovinyl)-L-cysteine injury, renal proximal tubular cell monolayers were washed with PBS and solubilized in Triton buffer (0.05% Triton X-100, 100 mM Tris-Base, 150 mM NaCl, pH 7.5). Samples were sonicated and protein concentrations determined using the method of Lowry (26) or the bicinchoninic acid microassay according to the manufacturer's instructions (Pierce, Rockford, Ill.).

[2] = tested on: renal proximal tubular cells; assay: Basal oxygen consumption (QO2), a measure of mitochondrial function
Procedure: as §1
On days 1, 4, and 6 after sublethal S-(1,2-dichlorovinyl)L-cysteine injury, renal proximal tubular cells bathed in 37° C. culture medium were gently detached from culture dishes with a rubber policeman and transferred to a 37° C. oxygen consumption (QO2) chamber. Basal renal proximal tubular cells QO2 was measured polarographically using a Clark-type electrode as described previously (36).

[3] = tested on: Na^+/K^+-ATPase activity in renal proximal tubular cells; assay: Na^+/K^+-ATPase activity (ouabain-sensitive ATPase); settings: day 6 after DCVC injury; 50 μg/ml
Procedure: as §1
On days 1 and 6 after sublethal S-(1,2-dichlorovinyl)-L-cysteine injury, total ATPase activity was measured using a modification of a previously described procedure (44). Briefly, renal proximal tubular cells cultured in 48-well cell culture clusters were scraped and incubated in dissociation buffer (5 mM HEPES (pH 7.4), 25 mM imidazole, 1% BSA, 0.065% sodium dodecyl sulfate (SDS)) for 10 min. at room temperature and placed on ice. The dissociated renal proximal tubular cells were then diluted 5-fold with additional dissociation buffer minus SDS. Aliquots of dissociated renal proximal tubular cells were combined with fresh ATPase assay buffer (2.54 mM MgCl2, 100 mM NaCl, 10 mM KCl, 5 mM HEPES, 10 U/ml lactate dehydrogenase, 7 U/ml pyruvate kinase, 2.54 mM Na2ATP, 2.54 mM phospho(enol)pyruvate, and 0.5 mM β-NADH). ATPase activity was measured under linear conditions spectrophotometrically as the oxidation of β-NADH to NAD^+ at 37° C. in the absence or presence of ouabain (0.1 mM) at a wavelength of 340 nm. Na^+/K^+-ATPase activity was calculated as total ATPase activity minus ouabain-insensitive ATPase activity.
Confluent monolayers of renal proximal tubular cells (day 6 after seeding) were exposed to 200 μM S-(1,2-dichlorovinyl)-L-cysteine (dissolved in water) for 1.75 hours followed by toxicant removal and addition of fresh culture media. This method produces approximately 50% cell death and loss 24 hours after the exposure. In some experiments, exogenous collagen IV (50 μg/ml), collagen I (50 μg/ml), or function-stimulating antibodies to collagen-binding integrin subunits α2 or β1 (5 μg/ml) was added daily to the culture media of S-(1,2-dichlorovinyl)-L-cysteine-injured renal proximal tubular cells cultured in the absence of pharmacological concentrations of L-ascorbic acid-2-phosphate. Function-stimulating antibodies to collagen-binding integrin α1 are not commercially available at this time. On days 1 and 6 following S-(1,2-dichlorovinyl)-L-cysteine exposure, active Na^+ transport or Na^+/K^+-ATPase activity, and collagen-binding integrin expression and/or localization in the remaining sublethally injured renal proximal tubular cells was determined as described below.
Total ATPase activity was measured as described above. […]

[4] = day 1 after DCVC injury, in presence of exogenous protein
[5] = day 6 after DCVC injury, 5, 15, 50 μg/ml
[6] = uninjured RPTC, days 1 or 6, exogenous protein

Row | Substance | decrease in monolayer cell density [1, 4] | monolayer protein content in injured RPTC [1] | cell density [1, 5] | monolayer cell density in untreated RPTC [1, 6] | decrease in basal QO2 [2, 4] | repair of basal QO2 [2, 5] | basal QO2 in untreated RPTC [2, 6] | Na^+/K^+-ATPase activity in injured RPTC [3]
1 | collagen I: Rat tail collagen I; triple helical, containing only α1 and α2 chains | approximately 50% | no change | neither increased cell density nor repair of basal QO2 | no effect | approximately 50% | neither increased cell density nor repair of basal QO2 | no effect | remained inhibited
2 | fibronectin | – | no change | – | – | – | – | – | remained inhibited
3 | laminin | – | no change | – | – | – | – | – | remained inhibited
